Several values for one entry are separate records, joined by “and”; a condition that tells them apart may be missing. Equal entries are not always repeated.
Columns and labels:
[1] = tested on: human PCa PC3-M cell orthotopic implants; experiment: Murine orthotopic implantation model of human PCa, lung metastasis; type: in vivo, mouse
Protocol: Prostate cancer: orthotopic implantation: Orthotopic implantation of human GFP-PC3-M PCa cells into 6–8 week male Balb/c athymic mice (Charles River Laboratories) and quantification of distant metastasis was performed as described by us[37]. Treatment with KBU2046, incorporated into Harlan Teklad 2016S® chow, began 1 week prior to implantation. Animals were excluded from the analysis if they died and/or met the criteria for killing in the 7 day post-operative period. Experimental groups were randomly assigned to cages prior to the initiation of the study. Metastasis were scored in a blinded fashion. Specifically, animals were assigned an ID number, resultant histologic slides contained a separate pathological ID number, slides were scored in a random fashion, after which the two numbers were linked up.

[2] = target: T1, cysteine and glycine-rich protein 1 (Homo sapiens, UniProt P21291); experiment: ProtoArray binding, cysteine and glycine-rich protein 1; conditions: 10 fold excess free KBU2046
T1 construct: purchased Invitrogen
T1 sequence (P21291 whole entry): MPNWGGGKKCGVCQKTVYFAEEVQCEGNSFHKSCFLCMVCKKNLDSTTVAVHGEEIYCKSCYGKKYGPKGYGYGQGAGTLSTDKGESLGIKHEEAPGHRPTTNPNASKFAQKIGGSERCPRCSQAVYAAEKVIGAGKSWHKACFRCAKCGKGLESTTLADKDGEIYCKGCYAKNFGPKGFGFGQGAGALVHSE
Protocol: The ProtoArray® assay, using the Human Protein Microarray platform, was performed by Invitrogen. […]
followed by detection with FITC-streptavidin, and visualization by fluorescent microscopy (with equal exposure times). (d) Protein array hybridization. KBU2046-biotin was hybridized to ProtoArray® Human Protein Microarray’s at 0.5 and 10 µM with and without 10 fold excess free KBU2046. We first sought proteins that met the following criteria, and did so at both 0.5 and 10 µM concentrations of KBU2046-biotin (in the absence of free KBU2046): Z-Score greater than 2.5, Z-Factor greater than 0.5, CI P-value less than 0.05, negative control value <2,000 (relative fluorescence units; RFUs), and a signal/negative control signal of >10 and >5 for 10 µM and 0.5 µM conditions, respectively. This yielded 3 proteins, shown in table, for an initial hit rate of 0.03%. We then required free KBU2046 to inhibit binding by >75%. Of the two remaining candidates, we eliminated isovaleryl-CoA dehydrogenase (ICD). Its binding signal doubled on […]
suspected non-specific binding by the biotin-linker moiety. We deemed cysteine and glycine-rich protein 1 (CSRP1) our top priority protein, though its binding characteristics at 10 µM + free KBU2046 were similar to ICD, albeit not as extreme. We thus evaluated whether KBU2046- […]
There were two additional notable findings from protein array studies. […]

[3] = tested on: MMPs: 1,2,3, and 7-16; experiment: Qiagen extracellular matrix/adhesion and metastasis/invasion expression arrays; type: cell-based, human; conditions: PC3-M cells, three days
Description: Response to Reviewers' comments:
We wish to thank the reviewers for their consideration of our manuscript. Their review and critiques have served to improve this manuscript. Below is a point-by-point response to reviewer critiques.
Changes in the manuscript and associated documents are underlined.
General comments: Much of the data is compelling and would be of interest to readers of Nature Communications, but some experimental procedures require a more thorough description and some of the data are too cursory to support the authors’ mechanistic conclusions...
Response. Thank you for your comprehensive and in formed review, we are encouraged that you felt that our data would be compelling to the readers of Nature Communications. In our revised manuscript as well as below, you will find that we have provided the requested clarifications, expanded descriptions and additional experiments requested.
1. Does the compound (herein abbreviated as ‘46’) have any impact on MMPs or other matrix-destroying activities? […] We did in fact suspect that this may be contributing to KBU2046’s anti-invasion efficacy, and as such we evaluated an entire panel of MMPs as part of two separate expression arrays. […]
2. […] Description of this experiment in both the figure legend and in Supplemental Methods is too cursory for the reader to understand how the treatment plan was selected. […]

[4] = Three-day MTT cell growth inhibition assay, PC3M; type: cell-based, human; conditions: human, PC3M cells; PC3M; 3 days
Description: (§1) Assays were in replicates of N = 3, and were repeated. […]
(§2) Values are the mean±SEM of a single experiment, in
(§3) replicates of N=4, repeated at least once (also N=4).
(§4) Supplementary Figure 1b. Synthetic round #2.

[5] = tested on: PC3M; experiment: Three-day MTT cell growth inhibition assay, PC3M; type: cell-based, human
Description: as §1, §2, §3, §4

In the case of `O=C1c2ccccc2OCC1c1ccc(F)cc1` (racemic) [KBU2046, (±)-3(4-fluorophenyl)chroman-4-one], the decrease in metastasis ([1]; KBU2046 in chow, dose-dependent) is reported as “up to 92%”, the suppression of metastasis ([1]; at a plasma concentration of 24 nM) is reported as 92% and > 90% and the primary tumor growth ([1]; tumor weight, mice of Fig. 2a) is reported as “does not inhibit primary tumor cell growth”. For the same compound, the “% inhibition by competitor” value ([2]; 0.5 uM KBU2046-biotin) was 79%, the “% inhibition by competitor” value ([2]; 10 uM KBU2046-biotin) was 33% and the “expression of MMPs and other array members” value [3] was “no significant differences”. For the same compound, the viability at 3 days, 50 µM [4] was 100%, the IC20 ([5]; Homo sapiens, PC-3M, 72 h, PC3M, concentration inhibiting cell growth by 20% after 3 days) was greater than 50 µM and the IC50 ([5]; Homo sapiens, PC-3M, 72 h, PC3M, concentration inhibiting cell growth by 50% after 3 days) was greater than 50 µM. For the same compound, the cell growth inhibition ([5]; PC3-M cells, three day MTT, SAR rounds) was “no growth inhibitory”.

Source: publication PMC6014988, “Precision therapeutic targeting of human cancer cell motility” (Nature Communications, 2018)
